Measured values reported in patent publication US11717508B2, “Compounds, compositions, and methods for inhibiting bacterial growth” (priority 2016, dated 2023).

System: DosRST regulon
Format: cell-based
[1] = Rv0569, WT Mtb treated with HC102A compared to DMSO
[2] = Rv0570 nrdZ, WT Mtb treated with HC102A compared to DMSO
[3] = Rv0571c, WT Mtb treated with HC102A compared to DMSO
[4] = Rv0572c, WT Mtb treated with HC102A compared to DMSO
[5] = Rv0573c, WT Mtb treated with HC102A compared to DMSO
[6] = Rv0574c, WT Mtb treated with HC102A compared to DMSO
[7] = Rv1733c, WT Mtb treated with HC102A compared to DMSO
[8] = Rv1735c, WT Mtb treated with HC102A compared to DMSO
[9] = Rv1736c narX, WT Mtb treated with HC102A compared to DMSO
[10] = Rv1737c narK2, WT Mtb treated with HC102A compared to DMSO
[11] = Rv1738, WT Mtb treated with HC102A compared to DMSO
[12] = Rv1790 PPE, WT Mtb treated with HC102A compared to DMSO
[13] = Rv1812c, WT Mtb treated with HC102A compared to DMSO
[14] = Rv1813c, WT Mtb treated with HC102A compared to DMSO
[15] = Rv1834, WT Mtb treated with HC102A compared to DMSO
[16] = Rv1996, WT Mtb treated with HC102A compared to DMSO
[17] = Rv1997 ctpF, WT Mtb treated with HC102A compared to DMSO
[18] = Rv2003c, WT Mtb treated with HC102A compared to DMSO
[19] = Rv2004c, WT Mtb treated with HC102A compared to DMSO
[20] = Rv2005c, WT Mtb treated with HC102A compared to DMSO
[21] = Rv2006 otsB, WT Mtb treated with HC102A compared to DMSO
[22] = Rv2007c fdxA, WT Mtb treated with HC102A compared to DMSO
[23] = Rv2027c, WT Mtb treated with HC102A compared to DMSO
[24] = Rv2028c, WT Mtb treated with HC102A compared to DMSO
[25] = Rv2030c, WT Mtb treated with HC102A compared to DMSO
[26] = Rv2032, WT Mtb treated with HC102A compared to DMSO
[27] = Rv2623, WT Mtb treated with HC102A compared to DMSO
[28] = Rv2624c, WT Mtb treated with HC102A compared to DMSO

## C[C@@H]1CC(C)(C)C[C@]2(C1)NC(=O)NC2=O (racemic) [HC102A, 7,7,9-trimethyl-1,3-diazaspiro[4.5]decane-2,4-dione]
40 μM, 6 days, >2-fold, p<0.05
  genes downregulated by compound (total): 55 genes
CDC1551, 40 μM, 6 days
  downregulation of tgs1 gene (transcriptional profiling): ~20 fold
[1]
  Fold change, gene MT0595: 0.1089
  log2 Fold change, gene MT0595: −3.199
Rv0569, WT Mtb treated with HC102A, replicate 1
  Counts per million (CPM) WT_HC102A1, gene MT0595: 21.38 CPM
Rv0569, WT Mtb treated with HC102A, replicate 2
  Counts per million (CPM) WT_HC102A2, gene MT0595: 25.92 CPM
[2]
  Fold change, gene MT0596: 0.04533
  log2 Fold change, gene MT0596: −4.464
Rv0570 nrdZ, WT Mtb treated with HC102A, replicate 1
  Counts per million (CPM) WT_HC102A1, gene MT0596: 102.7 CPM
Rv0570 nrdZ, WT Mtb treated with HC102A, replicate 2
  Counts per million (CPM) WT_HC102A2, gene MT0596: 94.1 CPM
[3]
  Fold change, gene MT0597: 0.2805
  log2 Fold change, gene MT0597: −1.834
Rv0571c, WT Mtb treated with HC102A, replicate 1
  Counts per million (CPM) WT_HC102A1, gene MT0597: 94.1998 CPM
Rv0571c, WT Mtb treated with HC102A, replicate 2
  Counts per million (CPM) WT_HC102A2, gene MT0597: 81.32 CPM
[4]
  Fold change, gene MT0599: 0.2441
  log2 Fold change, gene MT0599: −2.034
Rv0572c, WT Mtb treated with HC102A, replicate 1
  Counts per million (CPM) WT_HC102A1, gene MT0599: 127.4 CPM
Rv0572c, WT Mtb treated with HC102A, replicate 2
  Counts per million (CPM) WT_HC102A2, gene MT0599: 180.6 CPM
[5]
  Fold change, gene MT0601: 0.1932
  log2 Fold change, gene MT0601: −2.372
Rv0573c, WT Mtb treated with HC102A, replicate 1
  Counts per million (CPM) WT_HC102A1, gene MT0601: 13.82 CPM
Rv0573c, WT Mtb treated with HC102A, replicate 2
  Counts per million (CPM) WT_HC102A2, gene MT0601: 19.29 CPM
[6]
  Fold change, gene MT0602: 0.1416
  log2 Fold change, gene MT0602: −2.82
Rv0574c, WT Mtb treated with HC102A, replicate 1
  Counts per million (CPM) WT_HC102A1, gene MT0602: 45.11 CPM
Rv0574c, WT Mtb treated with HC102A, replicate 2
  Counts per million (CPM) WT_HC102A2, gene MT0602: 51.54 CPM
[7]
  Fold change, gene MT1774: 0.07551
  log2 Fold change, gene MT1774: −3.727
Rv1733c, WT Mtb treated with HC102A, replicate 1
  Counts per million (CPM) WT_HC102A1, gene MT1774: 109.6 CPM
Rv1733c, WT Mtb treated with HC102A, replicate 2
  Counts per million (CPM) WT_HC102A2, gene MT1774: 116 CPM
[8]
  Fold change, gene MT1776: 0.2742
  log2 Fold change, gene MT1776: −1.867
Rv1735c, WT Mtb treated with HC102A, replicate 1
  Counts per million (CPM) WT_HC102A1, gene MT1776: 5.202 CPM
Rv1735c, WT Mtb treated with HC102A, replicate 2
  Counts per million (CPM) WT_HC102A2, gene MT1776: 4.163 CPM
[9]
  Fold change, gene MT1778: 0.05545
  log2 Fold change, gene MT1778: −4.173
Rv1736c narX, WT Mtb treated with HC102A, replicate 1
  Counts per million (CPM) WT_HC102A1, gene MT1778: 234.5 CPM
Rv1736c narX, WT Mtb treated with HC102A, replicate 2
  Counts per million (CPM) WT_HC102A2, gene MT1778: 246.1 CPM
[10]
  Fold change, gene MT1779: 0.04997
  log2 Fold change, gene MT1779: −4.323
Rv1737c narK2, WT Mtb treated with HC102A, replicate 1
  Counts per million (CPM) WT_HC102A1, gene MT1779: 72.42 CPM
Rv1737c narK2, WT Mtb treated with HC102A, replicate 2
  Counts per million (CPM) WT_HC102A2, gene MT1779: 91.94 CPM
[11]
  Fold change, gene MT1780: 0.1174
  log2 Fold change, gene MT1780: −3.091
Rv1738, WT Mtb treated with HC102A, replicate 1
  Counts per million (CPM) WT_HC102A1, gene MT1780: 337.8 CPM
Rv1738, WT Mtb treated with HC102A, replicate 2
  Counts per million (CPM) WT_HC102A2, gene MT1780: 628.9 CPM
[12]
  Fold change, gene MT1839: 0.466
  log2 Fold change, gene MT1839: −1.102
Rv1790 PPE, WT Mtb treated with HC102A, replicate 1
  Counts per million (CPM) WT_HC102A1, gene MT1839: 29.83 CPM
Rv1790 PPE, WT Mtb treated with HC102A, replicate 2
  Counts per million (CPM) WT_HC102A2, gene MT1839: 18.94 CPM
[13]
  Fold change, gene MT1860: 0.3171
  log2 Fold change, gene MT1860: −1.657
Rv1812c, WT Mtb treated with HC102A, replicate 1
  Counts per million (CPM) WT_HC102A1, gene MT1860: 54.94 CPM
Rv1812c, WT Mtb treated with HC102A, replicate 2
  Counts per million (CPM) WT_HC102A2, gene MT1860: 65.84 CPM
[14]
  Fold change, gene MT1861: 0.06232
  log2 Fold change, gene MT1861: −4.004
Rv1813c, WT Mtb treated with HC102A, replicate 1
  Counts per million (CPM) WT_HC102A1, gene MT1861: 121.3 CPM
Rv1813c, WT Mtb treated with HC102A, replicate 2
  Counts per million (CPM) WT_HC102A2, gene MT1861: 147.2 CPM
[15]
  Fold change, gene MT1882: 0.4723
  log2 Fold change, gene MT1882: −1.082
Rv1834, WT Mtb treated with HC102A, replicate 1
  Counts per million (CPM) WT_HC102A1, gene MT1882: 37.79 CPM
Rv1834, WT Mtb treated with HC102A, replicate 2
  Counts per million (CPM) WT_HC102A2, gene MT1882: 31.49 CPM
[16]
  Fold change, gene MT2052: 0.01797
  log2 Fold change, gene MT2052: −5.798
Rv1996, WT Mtb treated with HC102A, replicate 1
  Counts per million (CPM) WT_HC102A1, gene MT2052: 561.6 CPM
Rv1996, WT Mtb treated with HC102A, replicate 2
  Counts per million (CPM) WT_HC102A2, gene MT2052: 277.3 CPM
[17]
  Fold change, gene MT2053: 0.04882
  log2 Fold change, gene MT2053: −4.356
Rv1997 ctpF, WT Mtb treated with HC102A, replicate 1
  Counts per million (CPM) WT_HC102A1, gene MT2053: 105.1 CPM
Rv1997 ctpF, WT Mtb treated with HC102A, replicate 2
  Counts per million (CPM) WT_HC102A2, gene MT2053: 117.4 CPM
[18]
  Fold change, gene MT2059: 0.2227
  log2 Fold change, gene MT2059: −2.167
Rv2003c, WT Mtb treated with HC102A, replicate 1
  Counts per million (CPM) WT_HC102A1, gene MT2059: 203.6 CPM
Rv2003c, WT Mtb treated with HC102A, replicate 2
  Counts per million (CPM) WT_HC102A2, gene MT2059: 97.15 CPM
[19]
  Fold change, gene MT2060: 0.2044
  log2 Fold change, gene MT2060: −2.291
Rv2004c, WT Mtb treated with HC102A, replicate 1
  Counts per million (CPM) WT_HC102A1, gene MT2060: 661.2 CPM
Rv2004c, WT Mtb treated with HC102A, replicate 2
  Counts per million (CPM) WT_HC102A2, gene MT2060: 393.9 CPM
[20]
  Fold change, gene MT2061: 0.1302
  log2 Fold change, gene MT2061: −2.942
Rv2005c, WT Mtb treated with HC102A, replicate 1
  Counts per million (CPM) WT_HC102A1, gene MT2061: 308.4 CPM
Rv2005c, WT Mtb treated with HC102A, replicate 2
  Counts per million (CPM) WT_HC102A2, gene MT2061: 262.8 CPM
[21]
  Fold change, gene MT2062: 0.2411
  log2 Fold change, gene MT2062: −2.052
Rv2006 otsB, WT Mtb treated with HC102A, replicate 1
  Counts per million (CPM) WT_HC102A1, gene MT2062: 140.8 CPM
Rv2006 otsB, WT Mtb treated with HC102A, replicate 2
  Counts per million (CPM) WT_HC102A2, gene MT2062: 181.1 CPM
[22]
  Fold change, gene MT2063: 0.2221
  log2 Fold change, gene MT2063: −2.171
Rv2007c fdxA, WT Mtb treated with HC102A, replicate 1
  Counts per million (CPM) WT_HC102A1, gene MT2063: 1,505.73 CPM
Rv2007c fdxA, WT Mtb treated with HC102A, replicate 2
  Counts per million (CPM) WT_HC102A2, gene MT2063: 2,151.57 CPM
[23]
  Fold change, gene MT2086: 0.3538
  log2 Fold change, gene MT2086: −1.499
Rv2027c, WT Mtb treated with HC102A, replicate 1
  Counts per million (CPM) WT_HC102A1, gene MT2086: 90.79 CPM
Rv2027c, WT Mtb treated with HC102A, replicate 2
  Counts per million (CPM) WT_HC102A2, gene MT2086: 84.31 CPM
[24]
  Fold change, gene MT2087: 0.08322
  log2 Fold change, gene MT2087: −3.587
Rv2028c, WT Mtb treated with HC102A, replicate 1
  Counts per million (CPM) WT_HC102A1, gene MT2087: 62.1 CPM
Rv2028c, WT Mtb treated with HC102A, replicate 2
  Counts per million (CPM) WT_HC102A2, gene MT2087: 56.17 CPM
[25]
  Fold change, gene MT2089: 0.06954
  log2 Fold change, gene MT2089: −3.846
Rv2030c, WT Mtb treated with HC102A, replicate 1
  Counts per million (CPM) WT_HC102A1, gene MT2089: 1,125.52 CPM
Rv2030c, WT Mtb treated with HC102A, replicate 2
  Counts per million (CPM) WT_HC102A2, gene MT2089: 784.7 CPM
[26]
  Fold change, gene MT2091: 0.06482
  log2 Fold change, gene MT2091: −3.947
Rv2032, WT Mtb treated with HC102A, replicate 1
  Counts per million (CPM) WT_HC102A1, gene MT2091: 270.6 CPM
Rv2032, WT Mtb treated with HC102A, replicate 2
  Counts per million (CPM) WT_HC102A2, gene MT2091: 336.8 CPM
[27]
  Fold change, gene MT2698: 0.02424
  log2 Fold change, gene MT2698: −5.366
Rv2623, WT Mtb treated with HC102A, replicate 1
  Counts per million (CPM) WT_HC102A1, gene MT2698: 903.6 CPM
Rv2623, WT Mtb treated with HC102A, replicate 2
  Counts per million (CPM) WT_HC102A2, gene MT2698: 611.4 CPM
[28]
  Fold change, gene MT2699: 0.052
  log2 Fold change, gene MT2699: −4.265
Rv2624c, WT Mtb treated with HC102A, replicate 1
  Counts per million (CPM) WT_HC102A1, gene MT2699: 106.2 CPM
Rv2624c, WT Mtb treated with HC102A, replicate 2
  Counts per million (CPM) WT_HC102A2, gene MT2699: 108.4 CPM
Rv2625c, WT Mtb treated with HC102A compared to DMSO
  Fold change, gene MT2700: 0.02819
